Broadly, the IC50 is the concentration needed to halve the response being measured. Low readings indicate greater potency, high ones weaker potency.

Data set [1] can be described thus: Cytotoxicity against human HCT116 cells after 72 hrs by sulforhodamine B assay. The format is functional, cell-based, HCT-116.
The test system of data set [2] is HT-29. Put plainly: Cytotoxicity against human HT-29 cells after 72 hrs by sulforhodamine B assay. The format is functional, cell-based.
Data set [3] in a line: Stability in human plasma assessed as lactone moieties level at 1 uM incubated at 37 degC after 3 hrs by HPLC method. The class given is ADME, cell-free. Particulars: read-out: Stability.
The test system of data set [4] is HCT-116. Kind of data set: Potency index, ratio of IC50 for SN38 to IC50 for compound against human HCT116 cells after 72 hrs by sulforhodamine B assay. The class given is functional. (The SRB assay estimates cell density from bound dye.)

`CCc1c2c(nc3ccc(O)cc13)-c1cc3c(c(=O)n1C2)COC(=O)[C@]3(O)CC` [7-ETHYL-10-HYDROXYCAMPTOTHECIN]: the IC50 was determined as 4.28 nM in data set [1] (Homo sapiens, HCT-116, 72 h) and 18.5 nM in data set [2] (Homo sapiens, HT-29, 72 h). Moreover, in data set [3], the remaining at 3 h, 1 µM was found to be 20%.

For the molecule `CC[C@]1(O)c2cc3n(c(=O)c2COC(=O)[C@H]1OC)Cc1c-3nc2cc3c(cc2c1-c1ccncc1)OCO3`, the IC50 in data set [1] (hct-116) turned out to be 0.215 nM; in data set [2] (ht-29), 1.27 nM. Further, the “Ratio IC50” value in data set [4] is on record as 20.
